The values below come from patent publication US20160058829A1, “ANTI-FIBROTIC PEPTIDES AND THEIR USE IN METHODS FOR TREATING DISEASES AND DISORDERS CHARACTERIZED BY FIBROSIS” (Thrasos Innovation, Inc., priority 2011, published 2016).

The test system of experiment [1] is Alk-3 deleted mice and littermate control mice, IRI. The experiment is described as follows: IRI in Alk-3 deleted (γGT-Cre; Alk3 flox/flox) and control mice. The note with it: for renal injury (tubular necrosis), IRI: THR-123 orally 5 mg/kg/day. The class given is in vivo. Here is the method: FIG. 76A-FIG. 76T THR-123 acts on tubule Alk3 as a receptor in kidney disease models. FIG. 76A-FIG. 76D, The effect of THR-123 on the IRI model kidney injury in Alk3^flox/flox and […]GTCre; Alk3^flox/flox mice. After ischemia reperfusion injury the mice were given THR-123 orally (5 mg/kg/day) till the day of sacrifice. FIG. 76A-FIG. 76C, the representative H&E staining picture of indicated group of mice are shown. FIG. 76D. Percentage renal tubular necrosis in IRI. Ten fields in each group were analyzed. Data are shown as mean±s.e.m. in the graph. FIG. 76E-FIG. 76T, The effect of THR-123 on the NTN model kidney injury in Alk3^flox/flox and gGTCre; Alk3^flox/flox mice. Six weeks after NTN was introduced in the indicated groups of mice, mice were treated with PBS or THR-123 orally. FIG. 76E-FIG. 76H, the representative MTS staining picture of indicated group of mice are shown. FIG. 76I, Morphometric analyses from 9 weeks of NTN models in indicated groups. FIG. 76J-FIG. 76N, Macrophage accumulation analysis in the kidney of NTN model in Alk3^flox/flox and gGTCre; Alk3^flox/flox mice. FIG. 76J-FIG. 76M, Mac-1 immunofluorescence study of indicated groups of mice. FIG. 76N, The number of macrophages per field of view (×400 magnification) was assessed by counting positively labeled cells in 5 random fields of view per slide, with 5 slides per experimental group. Data are shown as mean±s.e.m. in the graph. FIG. 76O-FIG. 76S, EMT analysis, FIG. 76O-FIG. 76R, E-cadherin/FSP1 immunolabeling of kidney in NTN-induced Alk3^flox/flox and GTCre; Alk3^flox/flox mice treated with either PBS or THR-123. FIG. 76S. Percent of E-cadherin/FSP1 double positive tubule. 500 tubules per slide, 5 slides per experimental group were analyzed. Data are expressed as mean±s.e.m. in the graph. FIG. 76T, Blood urea nitrogen measurement in 6 and 9 weeks of NTN in indicated groups of mice (all n=4).
Ischemia reperfusion injury (IRI) was induced by clamping of the left renal pedicle for 25 minutes. After ischemia reperfusion injury the mice were given THR-123 orally (5 mg/kg/day) or PBS till the day of sacrifice. FIG. 77A-FIG. 77C. Mac-1 immunofluorescence studies in the indicated groups. FIG. 77D. The number of macrophages per field of view (×400 magnification) was assessed by counting positively labeled cells in 5 random fields of view per slide, with 5 slides per experimental group.
Ischemia reperfusion injury (IRI) was induced by clamping of the left renal pedicle for 25 minutes. After ischemia reperfusion injury the mice were given THR-123 orally (5 mg/kg/day) or PBS till the day of sacrifice. FIG. 78A-FIG. 78C. Tubule cell apoptosis was analyzed in frozen kidney sections of indicated groups of animals by TUNEL staining. FIG. 78D. Quantification of TUNEL positive tubule cells. The number of TUNEL positive tubules per field of view (×200 magnification) was assessed by counting positively labeled cells in 5 random fields of view per slide, with 5 slides per experimental group.
THR-123 binds to Alk-3 receptor and induced actions that mimic BMP7 (vide supra). […] To functionally validate the target of THR-123 in exerting such reno-protective activity in mice, the efficacy of THR-123 in the Alk-3 deleted mice subjected to renal injury was tested (FIG. 42 K). The Alk-3 deleted mice and their littermate (control) mice were subjected to IRI.
Alk-3 flox mice are provided by Dr. Yuji Mishina, National Institutes of Health with material transfer agreements. γGT-Cre mice are provided from Dr. Eric Neilson, Vanderbilt University Medical Center. NTN is induced by the method described above.

Experiment [2] concerns human proximal tubule epithelial cells (HK2). The experiment is described as follows: Cisplatin-induced apoptosis in HK-2 cells (Annexin V). The following applies: THR-123 250 μM, cisplatin 10 μM. Type of experiment: cell-based. Here is the method: FIG. 50A-FIG. 50D THR-123 inhibits Cisplatin-induced apoptosis in human proximal tubule epithelial cells (HK2). Immortalized human proximal tubular epithelial-derived HK-2 (Human Kidney-2) cells are passaged on 24-well plates (˜25,000 to 30,000 cells/well). The cells are exposed either K-SFM media alone or K-SFM medium containing THR-123. BMP7 serves as a positive control of experiment. Two hours after incubation, cells are exposed to cisplatin for 60 hours (FIG. 50A-FIG. 50C). FIG. 50D. Cells are exposed to cisplatin for 6 hours and subsequently THR-123 was added into the media. Apoptosis is determined by staining of AnnexinV-FITC Apoptosis detection kit (TACS Annexin V-FITC) (R&D Systems), followed by fluorescence microscopy. Final concentration: THR-123 250 μM, BMP-7 1 μg/ml, cisplatin 10 μm.
HK-2 cells are passaged on 24-well plates (25,000-30,000 cell/well). Once cells attached on the well, cells are exposed either K-SFM media alone or K-SFM medium containing THR-123. BMP7 serves as a positive control of experiment. Two hours after incubation, cells are exposed to cisplatin for 60 hours. Apoptosis is determined by staining of AnnexinV-FITC, followed by fluorescence microscopy. Final concentration: THR-123 250 μM, BMP7 1 μg/ml, cisplatin 10 μM.

Experiment [3] concerns BALB/c mice with bleomycin-induced lung fibrosis. The experiment can be described thus: Bleomycin (plus cyclophosphamide)-induced pulmonary fibrosis in BALB/c mice.
Protocol: The endpoints in this model are survival and histomorphometric evaluation of the extent of fibrosis in lung tissue.
The test compound, in lyophilized form, is dissolved in 50 mM acetate buffer, pH 4.5 at an initial concentration of 20 mg/mL. The stock solution is then divided into several one mL aliquots, snap frozen and stored at −70° C. until used. On the Day of use, each aliquot is thawed and further diluted to a required working concentration in PBS, pH 7.5. The working concentration is determined from the intended dose (mg/kg body weight) and the oral administration volume.
In addition, the mice are administered a single intraperitoneal injection of cyclophosphamide (150 mg/kg of body weight). The animals challenged with Bleomycin plus Cyclophosphamide are separated into two groups, each group having a minimum of 6 animals. The vehicle treated group (Group 1) receives daily oral doses of PBS, pH 7.5. […] These treatments are continued for up to 16 days after Bleomycin administration. A third control group of mice receive intra-tracheal PBS rather than Bleomycine and Cyclophosphamide.
After completion of the in-life study, the animals are euthanized (methoxyflurane anesthesia), and the lungs are perfused with ice cold Hank's balanced salt solution to remove blood-born cells, and then inflated under a constant pressure of 30 cm H2O with 10% normal buffered formalin (NBF). Lungs are ligated at the trachea, removed en bloc, and immersed in NBF for 24 hr. After which, tissue samples are changed to 70% alcohol before paraffin embedding, followed by sectioning and staining with hematoxylin, eosin and Masson's Trichrome. Sections are analyzed microscopically to evaluate pulmonary fibrosis by determining the degree of collagen accumulation (Masson's Trichrome).
Pulmonary fibrosis was evaluated histomorphometricly by determining the percentage of field with collagen accumulation lung sections stained with Masson's Trichrome.
For experiment [4], the system named is mice with ischemia reperfusion injury. The experiment is described as follows: Ischemia reperfusion injury (IRI) in mice. Type of experiment: in vivo. Here is the method: FIG. 55A-FIG. 55D The effect of THR-123 on acute tubular damage induced by ischemia reperfusion injury. Ischemia reperfusion injury (IRI) was induced by the clamping of the left renal pedicle for 25 minutes. After ischemia reperfusion injury the mice were given THR-123 orally (5 mg/kg/day) or PBS till the day of sacrifice. […] Arrows indicate necrotic tubules. FIG. 55B. […] FIG. 55C. […] Ten fields in each group were analyzed. FIG. 55D. Blood urea nitrogen estimated by quantichrome colorimetric urea assay at day 7 IRI. No difference in the all groups. PBS group (n=5) and THR-123-treated group (n=4) are analyzed. Data are shown as mean±s.e.m. in the graph.
7B16 mice are used in this study. Mice are anesthetized with the mixture of ketamine and xylazine and the left renal pedicle clamped for 25 minutes. At same day after surgery, THR-123 (p.o. 5 mg/Kg/day) or vehicle treatments are started. At 7 days after surgery, mice are sacrificed.

Positions of bridges follow the written chain, without caps; N, C: chain ends.

Turning to “(H)-CYFDDSSNVLCKKYRS-(OH) (H-CYFDDSSNVLCKKYRS-OH; disulfide 1-11; SMILES CC(C)C[C@@H]1NC(=O)[C@H](C(C)C)NC(=O)[C@H](CC(N)=O)NC(=O)[C@H](CO)NC(=O)[C@H](CO)NC(=O)[C@H](CC(=O)O)NC(=O)[C@H](CC(=O)O)NC(=O)[C@H](Cc2ccccc2)NC(=O)[C@H](Cc2ccc(O)cc2)NC(=O)[C@@H](N)CSSC[C@@H](C(=O)N[C@@H](CCCCN)C(=O)N[C@@H](CCCCN)C(=O)N[C@@H](Cc2ccc(O)cc2)C(=O)N[C@@H](CCCNC(=N)N)C(=O)N[C@@H](CO)C(=O)O)NC1=O) [SEQ ID NO: 1]”, in experiment [1] (Alk-3 deleted mice), the “macrophage accumulation, IRI” value was “does not inhibit macrophage accumulation”; the “tubular apoptosis, IRI” value is on record as “does not inhibit apoptosis”; the “renal injury (tubular necrosis), IRI” value is given as “does not exhibit therapeutic effect”. Moreover, in experiment [1] (control mice), the “macrophage accumulation, IRI” value is recorded as “reduction in macrophage accumulation”; the “tubular apoptosis, IRI” value is on record as “decreased tubular apoptosis”; the “renal injury (tubular necrosis), IRI” value is “inhibited renal injury”. The cisplatin induced apoptosis result in experiment [2] was “inhibited”. Moreover, the “pulmonary fibrosis (histomorphometric analysis of lung tissue)” value in experiment [3] (daily oral dose of 5 mg/kg) is “significantly less pulmonary fibrosis”. For the same substance, the “survival rate at 16 days” value in experiment [3] (daily oral dose of 5 mg/kg, vehicle 100% mortality by 8 days) was determined as 80%. Also, the “lung fibrosis score (percentage of field with collagen accumulation, Masson's Trichrome)” value in experiment [3] (day 16, oral, vehicle 31% at ten days) was determined as 16%. The “survival by day 16” value in experiment [3] (oral) was “survival of all mice”. For the same substance, in experiment [4] (THR-123 orally 5 mg/kg/day versus PBS), the “blood urea nitrogen at day 7 IRI” value is recorded as “No difference”. In addition, the “renal tubular necrosis / tubular damage” value in experiment [4] (THR-123 orally 5 mg/kg/day, versus PBS, day 7) was “significantly less tubular damage”.
